Data: PubChem BioAssay AID248 (DTP/NCI, 2004)
Values joined by “and” are separate entries in the source; they are usually repeats but may differ in a detail not shown here. Equal values may be shown once. Toxic doses and inconclusive results are not listed.

Tested on: L1210 leukemia ip in BDF1 mice, survival T/C
Assay: NCI In Vivo Anticancer Drug Screen. Data for tumor model L1210 Leukemia (intraperitoneal) in B6D2F1 (BDF1) mice
Conditions: endpoint: mean survival time, higher = longer survival
Outline: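 Value reflects the ratio of survival in compound-treated mice to survival in vehicle-treated controls, with both groups carrying the same transplanted tumor.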

[1] = dose: 100.0 mg/kg/injection, schedule: Q01DX001 (ip), vehicle: saline
[2] = dose: 100.0 mg/kg/injection, schedule: Q04DX002 (ip), vehicle: saline
[3] = dose: 200.0 mg/kg/injection, schedule: Q01DX001 (ip), vehicle: saline
[4] = dose: 400.0 mg/kg/injection, schedule: Q01DX001 (ip), vehicle: saline
[5] = dose: 100.0 mg/kg/injection, schedule: Q01DX009 (ip), vehicle: saline
[6] = dose: 100.0 mg/kg/injection, schedule: Q04DX003 (ip), vehicle: saline
[7] = dose: 200.0 mg/kg/injection, schedule: Q01DX009 (ip), vehicle: saline
[8] = dose: 100.0 mg/kg/injection, schedule: Q01DX Z (ip), vehicle: methylcellulose (MC)
[9] = dose: 200.0 mg/kg/injection, schedule: Q01DX Z (ip), vehicle: methylcellulose (MC)

With `Cc1cc(NC(=O)Nc2cccc(C3=NCCN3)c2)ccc1NC(=O)Nc1cccc(C2=NCCN2)c1` the T/C (dose: 15.0 mg/kg/injection, schedule: Q01DX Z (ip), vehicle: saline) was 93 % of control, the T/C (dose: 30.0 mg/kg/injection, schedule: Q01DX Z (ip), vehicle: saline) was 103 % of control and the T/C (dose: 60.0 mg/kg/injection, schedule: Q01DX Z (ip), vehicle: saline) was 109 % of control. The T/C (dose: 240.0 mg/kg/injection, schedule: Q01DX Z (ip), vehicle: saline) was 171 % of control and the T/C (dose: 480.0 mg/kg/injection, schedule: Q01DX Z (ip), vehicle: saline) was 192 % of control.

In the case of `CCC(O)C1CCCO1` (centres undefined), the T/C (dose: 25.0 mg/kg/injection, schedule: Q04DX002 (ip), vehicle: saline) is reported as 103 % of control, the T/C (dose: 50.0 mg/kg/injection, schedule: Q04DX002 (ip), vehicle: saline) is reported as 92 % of control and the T/C [1] is reported as 104 % of control. The T/C [2] was 103 % of control, the T/C [3] was 95 % of control and the T/C [4] was 93 % of control.

With `O=C1C=C(Br)C(=O)C1(Br)Br` the T/C (dose: 75.0 mg/kg/injection, schedule: Q01DX001 (sc), vehicle: olive oil, sesame oil, peanut oil) was 117 % of control.

With `COc1ccccc1NC(=O)Oc1ccc(Br)cc1Br` the T/C [1] was 95 % of control, the T/C [5] was 102 % of control and 106 % of control and the T/C [2] was 105 % of control and 109 % of control. The T/C [6] was 93 % of control, the T/C [3] was 101 % of control and the T/C [7] was 103 % of control and 110 % of control. For the same molecule, the T/C (dose: 200.0 mg/kg/injection, schedule: Q04DX002 (ip), vehicle: saline) was 105 % of control and 109 % of control, the T/C (dose: 200.0 mg/kg/injection, schedule: Q04DX003 (ip), vehicle: saline) was 95 % of control and the T/C [4] was 123 % of control. For the same molecule, the T/C (dose: 400.0 mg/kg/injection, schedule: Q01DX009 (ip), vehicle: saline) was 103 % of control and 109 % of control, the T/C (dose: 400.0 mg/kg/injection, schedule: Q04DX002 (ip), vehicle: saline) was 107 % of control and 88 % of control and the T/C (dose: 400.0 mg/kg/injection, schedule: Q04DX003 (ip), vehicle: saline) was 101 % of control.

With `N#CC1(C#N)CC=CCC1(C#N)C#N` the T/C (dose: 12.5 mg/kg/injection, schedule: Q01DX009 (ip), vehicle: other) was 92 % of control and the T/C (dose: 25.0 mg/kg/injection, schedule: Q01DX009 (ip), vehicle: other) was 87 % of control.

`CCc1c(Nc2ccccc2C)nc(N)[nH]c1=O` was tested, and the T/C [8] was 100 % of control and the T/C [9] was 104 % of control.

For `C1CCC(CCC(CCCC2CCCC2)CCC2CCCCC2)CC1`, the T/C (dose: 100.0 mg/kg/injection, schedule: Q01DX001 (ip), vehicle: saline with Tween-80) was 94 % of control, the T/C (dose: 200.0 mg/kg/injection, schedule: Q01DX001 (ip), vehicle: saline with Tween-80) was 94 % of control and the T/C (dose: 400.0 mg/kg/injection, schedule: Q01DX001 (ip), vehicle: saline with Tween-80) was 102 % of control.

For `O=c1ccnc(SCc2ccccc2Cl)[nH]1`, the T/C [8] was 91 % of control and the T/C [9] was 91 % of control.

With `Cc1cccc(NC(=O)c2ccc(Cl)c(Cl)c2)c1C` the T/C (dose: 100.0 mg/kg/injection, schedule: Q01DX009 (ip), vehicle: Klucel (hydroxypropylcellulose) (HPC)) was 94 % of control, the T/C (dose: 100.0 mg/kg/injection, schedule: Q04DX003 (ip), vehicle: Klucel (hydroxypropylcellulose) (HPC)) was 93 % of control and the T/C (dose: 200.0 mg/kg/injection, schedule: Q01DX009 (ip), vehicle: Klucel (hydroxypropylcellulose) (HPC)) was 88 % of control. The T/C (dose: 200.0 mg/kg/injection, schedule: Q04DX003 (ip), vehicle: Klucel (hydroxypropylcellulose) (HPC)) was 91 % of control, the T/C (dose: 400.0 mg/kg/injection, schedule: Q01DX009 (ip), vehicle: Klucel (hydroxypropylcellulose) (HPC)) was 88 % of control and the T/C (dose: 400.0 mg/kg/injection, schedule: Q04DX003 (ip), vehicle: Klucel (hydroxypropylcellulose) (HPC)) was 95 % of control.

For `CCCCCCCCCCCCCCCC(=O)N(CCCN)CCCN(CCCN)C(=O)CCCCCCCCCCCCCCC`, the T/C [6] was 98 % of control.

In the case of `O=C(CCCl)c1ccccc1`, the T/C (dose: 100.0 mg/kg/injection, schedule: Q04DX002 (ip), vehicle: Klucel (hydroxypropylcellulose) (HPC)) is reported as 97 % of control and the T/C (dose: 200.0 mg/kg/injection, schedule: Q04DX002 (ip), vehicle: Klucel (hydroxypropylcellulose) (HPC)) is reported as 94 % of control.

With `C[C@]12CC[C@@H]3c4ccc(Oc5nc(N6CC6)nc(N6CC6)n5)cc4CC[C@H]3[C@@H]1CCC2=O` the T/C (dose: 25.0 mg/kg/injection, schedule: Q01DX009 (ip), vehicle: steriod suspending solution) was 101 % of control, the T/C (dose: 25.0 mg/kg/injection, schedule: Q01DX009 (oral), vehicle: carboxymethylcellulose (CMC)) was 106 % of control and the T/C (dose: 25.0 mg/kg/injection, schedule: Q04DX003 (sc), vehicle: steriod suspending solution) was 106 % of control. For the same molecule, the T/C (dose: 50.0 mg/kg/injection, schedule: Q01DX009 (oral), vehicle: carboxymethylcellulose (CMC)) was 101 % of control, the T/C (dose: 50.0 mg/kg/injection, schedule: Q04DX003 (sc), vehicle: steriod suspending solution) was 98 % of control and the T/C (dose: 100.0 mg/kg/injection, schedule: Q01DX001 (sc), vehicle: steriod suspending solution) was 105 % of control. For the same molecule, the T/C (dose: 100.0 mg/kg/injection, schedule: Q01DX009 (oral), vehicle: carboxymethylcellulose (CMC)) was 104 % of control, the T/C (dose: 100.0 mg/kg/injection, schedule: Q04DX003 (sc), vehicle: steriod suspending solution) was 101 % of control and the T/C (dose: 200.0 mg/kg/injection, schedule: Q01DX001 (sc), vehicle: steriod suspending solution) was 118 % of control. The T/C (dose: 400.0 mg/kg/injection, schedule: Q01DX001 (sc), vehicle: steriod suspending solution) was 107 % of control.

With `CCOC(=O)C1CN(C)C(=O)C1=O` (centres undefined) the T/C (dose: 50.0 mg/kg/injection, schedule: Q01DX001 (ip), vehicle: saline) was 100 % of control, the T/C [1] was 93 % of control and the T/C [3] was 87 % of control. The T/C [4] was 114 % of control.

`S=C(NCCNC(=S)[S][Sn]([c]1ccccc1)([c]1ccccc1)[c]1ccccc1)[S][Sn]([c]1ccccc1)([c]1ccccc1)[c]1ccccc1` was tested, and the T/C (dose: 4.0 mg/kg/injection, schedule: Q01DX015 (ip), vehicle: carboxymethylcellulose (CMC)) was 97 % of control, the T/C (dose: 8.0 mg/kg/injection, schedule: Q01DX015 (ip), vehicle: carboxymethylcellulose (CMC)) was 97 % of control and the T/C (dose: 16.0 mg/kg/injection, schedule: Q01DX015 (ip), vehicle: carboxymethylcellulose (CMC)) was 94 % of control. The T/C (dose: 25.0 mg/kg/injection, schedule: Q01DX009 (ip), vehicle: saline with Tween-80) was 92 % of control, the T/C (dose: 32.0 mg/kg/injection, schedule: Q01DX015 (ip), vehicle: carboxymethylcellulose (CMC)) was 94 % of control and 104 % of control and the T/C (dose: 50.0 mg/kg/injection, schedule: Q01DX009 (ip), vehicle: saline with Tween-80) was 91 % of control. The T/C (dose: 64.0 mg/kg/injection, schedule: Q01DX015 (ip), vehicle: carboxymethylcellulose (CMC)) was 112 % of control, the T/C (dose: 100.0 mg/kg/injection, schedule: Q01DX001 (ip), vehicle: carboxymethylcellulose (CMC)) was 100 % of control and the T/C (dose: 100.0 mg/kg/injection, schedule: Q04DX003 (ip), vehicle: saline with Tween-80) was 96 % of control. The T/C (dose: 200.0 mg/kg/injection, schedule: Q01DX001 (ip), vehicle: carboxymethylcellulose (CMC)) was 100 % of control and the T/C (dose: 400.0 mg/kg/injection, schedule: Q01DX001 (ip), vehicle: carboxymethylcellulose (CMC)) was 102 % of control.

With `Cc1ccc2[nH]c(O)c(N=Nc3ccccc3[N+](=O)[O-])c2c1` the T/C [1] was 90 % of control and the T/C [3] was 93 % of control.

In the case of `O=C1C=C(N2CC2)C(=O)C(N2CC2)=C1N1CC1`, the T/C (dose: 0.07 mg/kg/injection, schedule: Q01DX001 (ip), vehicle: saline) is reported as 112 % of control, the T/C (dose: 0.1 mg/kg/injection, schedule: Q01DX Z (ip), vehicle: saline) is reported as 93 % of control and the T/C (dose: 0.3 mg/kg/injection, schedule: Q01DX001 (ip), vehicle: saline) is reported as 155 % of control. For the same molecule, the T/C (dose: 0.6 mg/kg/injection, schedule: Q01DX001 (ip), vehicle: saline) was 87 % of control, the T/C (dose: 6.3 micrograms/kg/injection, schedule: Q01DX015 (ip), vehicle: saline) was 107 % of control and the T/C (dose: 12.5 micrograms/kg/injection, schedule: Q01DX015 (ip), vehicle: saline) was 102 % of control. The T/C (dose: 25.0 micrograms/kg/injection, schedule: Q01DX015 (ip), vehicle: saline) was 113 % of control and the T/C (dose: 75.0 micrograms/kg/injection, schedule: Q01DX009 (ip), vehicle: saline) was 113 % of control.

In the case of `CC(C)C(CN)(CCCN1CCOCC1)c1cccc2ccccc12` (centres undefined), the T/C (dose: 100.0 mg/kg/injection, schedule: Q01DX009 (ip), vehicle: saline with Tween-80) is reported as 94 % of control and the T/C (dose: 200.0 mg/kg/injection, schedule: Q01DX009 (ip), vehicle: saline with Tween-80) is reported as 89 % of control.

For `O=C(CCl)N1C(=O)CC(c2ccccc2)C1=O` (centres undefined), the T/C (dose: 100.0 mg/kg/injection, schedule: Q04DX002 (ip), vehicle: saline with Tween-80) was 101 % of control, the T/C (dose: 200.0 mg/kg/injection, schedule: Q04DX002 (ip), vehicle: saline with Tween-80) was 97 % of control and the T/C (dose: 400.0 mg/kg/injection, schedule: Q04DX002 (ip), vehicle: saline with Tween-80) was 95 % of control.

With `CCC(C)C(CCN(C)C)(CNC(=O)CN(CC)CC)c1cccc2ccccc12` (centres undefined) the T/C [5] was 96 % of control and the T/C [7] was 91 % of control.
